One series addresses Ryanodine receptor (Hemicentrotus pulcherrimus, UniProt Q8TA74). Kind of series: (§1) Agonist activity at ryanodine receptor in Hemicentrotus pulcherrimus egg homogenate assessed as increase in intracellular calcium mobilization by Fluo-3 dye based fluorimetric assay. The class given is cell-based.
The target in series [1] is Ryanodine receptor (Hemicentrotus pulcherrimus) (UniProt Q8TA74). Kind of series: Antagonist activity at ryanodine receptor in Hemicentrotus pulcherrimus egg homogenate assessed as decrease in intracellular calcium mobilization by Fluo-3 dye based fluorimetric assay. The class given is cell-based.
The target is the same in series [2]. The description is as §1. Type of series: cell-based.
Series [3] is filed under the species Homo sapiens. Kind of series: Agonist activity at ryanodine receptor (unknown origin) in T cells assessed as increase in intracellular calcium mobilization by Fluo-3 dye based fluorimetric assay. The class given is cell-based. (In general: Calcium flux is commonly read through the fluorescence of an indicator in the cells.)
A short description of series [4]: Dissociation constant, pKa of the compound. The class given is physicochemical.
The species entered for series [5] is Homo sapiens. Kind of series: Agonist activity at ryanodine receptor (unknown origin) in neuronal cells assessed as increase in intracellular calcium mobilization by Fluo-3 dye based fluorimetric assay. Type of series: cell-based.

The values below come from ChEMBL document CHEMBL4011637, “Synthesis of 8-Substituted Analogues of Cyclic ADP-4-Thioribose and Their Unexpected Identification as Ca2+-Mobilizing Full Agonists” (J Med Chem, 2017).

SMILES strings stand for the structures. Calls of active or inactive are those of the source. No cut-off for these calls is given here.

In general, EC50 refers to the concentration that produces a half-maximal response. `Nc1nc2c(N)[n+]3cnc2n1[C@@H]1O[C@H](COP(=O)(O)OP(=O)([O-])OC[C@H]2S[C@@H]3[C@H](O)[C@@H]2O)[C@@H](O)[C@H]1O`: the EC50 on Ryanodine receptor was determined as 870 nM. Further, the inhibition result in series [1] was “inactive”.

For `[N-]=[N+]=Nc1nc2c(N)[n+]3cnc2n1[C@@H]1O[C@H](COP(=O)(O)OP(=O)([O-])OC[C@H]2C[C@@H]3[C@H](O)[C@@H]2O)[C@@H](O)[C@H]1O`, the outcome in series [2] was Active.

The pKa is the negative logarithm of the acid dissociation constant. With `Nc1c2ncn3c2nc[n+]1[C@@H]1O[C@H](COP(=O)([O-])OP(=O)(O)OC[C@H]2O[C@@H]3[C@H](O)[C@@H]2O)[C@@H](O)[C@H]1O`, the result in the series filed under Homo sapiens [3] was Active. In addition, the pKa in series [4] was determined as 8.3. For the same compound, in series [2], the Activity result is “Dose-dependent effect”. On Ryanodine receptor, the EC50 worked out at 210 nM.

For the compound `Nc1nc2c(N)[n+]3cnc2n1[C@@H]1O[C@H](COP(=O)([O-])OP(=O)(O)OC[C@H]2C[C@@H]3[C@H](O)[C@@H]2O)[C@@H](O)[C@H]1O`, the result in series [2] was Active.

`Nc1c2ncn3c2nc[n+]1[C@@H]1S[C@H](COP(=O)([O-])OP(=O)(O)OC[C@H]2O[C@@H]3[C@H](O)[C@@H]2O)[C@@H](O)[C@H]1O`: the result in the series filed under Homo sapiens [3] and in the series listed under Homo sapiens [5] was Active. In series [4], the pKa is 8. The EC50 at Ryanodine receptor was found to be 39 nM.

In the case of `Nc1c2nc(Cl)n3c2nc[n+]1[C@@H]1C[C@H](COP(=O)(O)OP(=O)([O-])OC[C@H]2O[C@@H]3[C@H](O)[C@@H]2O)[C@@H](O)[C@H]1O`, in series [2], the result was Active.

On to `Nc1c2nc(Cl)n3c2nc[n+]1[C@@H]1S[C@H](COP(=O)([O-])OP(=O)(O)OC[C@H]2O[C@@H]3[C@H](O)[C@@H]2O)[C@@H](O)[C@H]1O`, for which, on Ryanodine receptor, the EC50 is 12000 nM. Besides, the inhibition entry in series [1] is “inactive”.

For `Nc1c2ncn3c2nc[n+]1[C@@H]1C[C@H](COP(=O)([O-])OP(=O)(O)OC[C@H]2O[C@@H]3[C@H](O)[C@@H]2O)[C@@H](O)[C@H]1O`, the result in the series listed under Homo sapiens [3] was inactive. For the same compound, in series [4], the pKa was found to be 9. Moreover, the result in the series listed under Homo sapiens [5] was Active.

Turning to `[N-]=[N+]=Nc1nc2c(N)[n+]3cnc2n1[C@@H]1O[C@H](COP(=O)(O)OP(=O)([O-])OC[C@H]2S[C@@H]3[C@H](O)[C@@H]2O)[C@@H](O)[C@H]1O`, the EC50 on Ryanodine receptor was 37000 nM.
